# In US20050232902A1, “Injectable bioartificial tissue matrix” (priority 2004, published 2005):
# Key:
# injured myocardium = assay: Transplantation of hES-derived cardiomyocytes pretreated with ascorbic acid into LAD-ligated heart, graft/infarct ratio; type: in vivo, Mice
# From the text: The ascorbic acid-treated cells can become large conglomerates of cells in the injected tissue and thereby can restore major portions of a damaged heart muscle when compared with tissue injected with untreated cells. The proportion of host tissue target organ restored by the grafted cultured cells can be evaluated by a measure termed the “graft/infarct ratio”. The graft/infarct ratio is the ratio of the portion of the ‘dead tissue’ area of the target organ that is restored and/or replaced by transplanted cells of bioartificial tissue. The ratio is determined by dividing a measured area of the restored and/or replaced area by the total measured area of ‘dead tissue’. In addition, a measure or growth and/or of viability can be determined by other methods known in the art. Such methods include, staining of tissue slices with trypan blue to determine extent of dye exclusion, determining nucleic acid uptake of tritiated thymidine into proliferating cells, and staining of tissue slices with toluidin blue to determine extent of dye uptake.
# Human ES (hES) cell lines, H1 and H7 (Mummery et al., (2002) supra; Hescheler, B. K. et al. (1997) Cardiovasc. Res. 36:149-162) were initially maintained on feeders in ES medium containing 80% knockout Dulbecco's modified Eagle's medium (KO-DMEM) (Invitrogen, Carlsbad Calif.), 1 mM L-glutamine, 0.1 mM β-mercaptoethanol, 1% nonessential amino acids stock (Invitrogen), 20% Serum Replacement (Invitrogen, Carlsbad Calif.) and 4 ng/ml hbFGF (Invitrogen). The cells were later maintained using feeder-free conditions, herein described. Briefly, feeder-free cultures were passaged by incubation in 200 units/ml collagenase IV for 5-10 minutes at 37° C., dissociated and then seeded onto MATRIGEL-coated plates and maintained in conditioned medium (CM) prepared from primary mouse embryonic fibroblast cultures.
# Confluent H7 hES cell cultures were incubated with 0.5 mM EDTA in phosphate-buffered saline (PBS) at 37° C. for 8 min, dissociated, resuspended in CM and replated onto MATRIGEL-coated plates at ˜1×10^6 cells/cm^2. […]
# chondrocytes = settings: cited from earlier work
# [1] = system: transplant cell viability and colonization; assay: Adjuvants compared with ascorbic acid in transplantable cell cultures (Example VI); type: in vivo; settings: treatment of cells prior to transplantation into a target organ
# From the text: In separate experiments, treatment with other adjuvants or treatments were compared with treatment with ascorbic acid. [formula]
compound,measurement,setting,value
O=C1O[C@H]([C@@H](O)CO)C(O)=C1O [ascorbic acid],Increase of graft/infarct ratio compared with untreated cells,"injured myocardium; 24 hours (treated) vs six hours (untreated, R=0.09:1.0) after transplantation",4.6 fold
same,Effects on colonization and viability of pretreated cells at subsequent time points,"injured myocardium; 7 days, 14 days, and 28 days following transplantation",sustained
same,Area of the tissue populated by transplanted cells,"injured myocardium; cells pretreated 24 hrs with 1 mM ascorbic acid, 24 hours following transplantation, total damaged area 536,594 μm^2, FIG. 5","215,525 μm^2"
same,Viable cells in the gelled culture,"chondrocytes; 2×10^5 cells starting number, 50 μg/ml ascorbic acid, three weeks in vitro",approximately 12×10^5 cells
same,Increase in cell viability,chondrocytes; chondrocytes incubated three weeks in vitro vs absence of ascorbic acid,approximately ten-fold
same,Viable cells after three weeks incubation,chondrocytes; starting number 2×10^6 cells,2.6×10^6 cells
same,Increase in transplant cell viability and colonization,[1],at least 47 fold
